pIC50: −log10 of the molar value.
Legend:
C57bl/6 mice = assay: Murine carrageenan-induced paw edema; format: in vivo, mouse; design: Paw swelling Index: Mean: unit not given here; conditions: for % relative to carageenan-induced level: Veh = 100; for % relative to carageenan-induced level / % reduction relative to carageenan-induced level: (R)-6, (R)-17 2 μg/kg, Naproxen 50 mg/kg p.o.; for effect on inflammatory response (paw swelling), in words / Paw swelling Index: Mean: (R)-6, (R)-17 2 μg/kg ip, Naproxen 50 mg/kg po; for Paw swelling Index: Mean: n = 3
Experimental: Then, 50 μL of 1% carrageenan was injected with an equivalent volume of saline injected into the contralateral paw. Inflammation was presented as the difference in paw thickness over time using gauge (POCO 2T; Kroeplin, GmbH, Surrey, U.K.). Data are presented as mean ± SEM, n = 3 mice/treatment group.

IL-6 = assay: LPS-induced IL-6 release from THP-1 Lucia monocytes (multiplex electrochemiluminescence); format: cell-based, human; conditions: for pIC50: Homo sapiens, THP-1; for pIC50 / Imax, IL-6 release: LPS 50 ng/mL, 24 h; for Imax, IL-6 release: concentration–response
Experimental: (§1) LXA41 and all of the tested sLXms were dissolved in ethanol and further diluted in a culture medium (final ethanol concentration 0.1%; equivalent concentrations were used as the vehicle control). Prior to in vitro experiments, THP-1-Lucia NF-κB cells were harvested and plated at 1 × 10^5 cells/well on 96-well plates and left to settle in the incubator at 37 °C, 95% humidity, and 5% CO2, in 0.1% FBS-containing media, pretreated for 30 min with increasing doses of LXA41, sLXms (from 10^–12 to 10^–6 M), or appropriate controls, followed by stimulation with 50 ng/mL LPS for 24 h. Untreated (Unt) or vehicle-treated (Veh) cells were used as negative controls; 1 pM (1R)-5, the (1R)-epimer of the benzo-mimetic, was used as a positive control for any aromatic mimetic; and, finally, we compared the observed effects to the conventional glucocorticoid dexamethasone (Dex) treatment, at 1 μM.
(§2) After 24 h of exposure to LXA41, sLXms, or vehicle, followed by LPS stimulation (50 ng/mL), as described above, THP-1-Lucia NF-κB-cell supernatants were collected and cleared by centrifugation. Concentrations of IFN-γ, IL-1β, IL-6, IL-8, IL-10, IL-12p70, and TNF-α in culture supernatants were assessed by electro-chemi-luminescent detection, using a commercially available human 96-well plate “multiplex” (several analytes in the same well) kit for tissue culture samples, according to the manufacturers’ guidelines.
(§3) The “coding” of the heat-map indicates the arbitrary criteria to assign points to each single PD component (efficacy = Imax or Emax; potency = IC50 or EC50; slope = HS) to generate a final (aggregate) relative PD score. If a single PD component was greater than the reference level (x > 1), then the single-component relative score was arbitrarily set to +1 (light green) or +2 (dark green). If a single PD component was equal to the reference level (x = 1), then the single-component relative score was arbitrarily set to 0 (gray). If a single PD component was smaller than the reference level (x < 1), then the single-component relative score was arbitrarily set to −1 (light red) or −2 (dark red). If the curve of a single PD component was best fitting to a flat line (x = 0), then the single-component relative score was arbitrarily set to −4 (purple) (Table S1).

IL-1β = assay: LPS-induced IL-1β release from THP-1 Lucia monocytes (multiplex electrochemiluminescence); format: cell-based, human; conditions: for pIC50: Homo sapiens, THP-1
Experimental: as §1, §2, §3

IL-8 = assay: LPS-induced IL-8 release from THP-1 Lucia monocytes (multiplex electrochemiluminescence); format: cell-based, human; conditions: Dex 1 μM; 1 1 nM; (R)-6 concentration not given
Experimental: as §1, §2

C57BL/6J mice = assay: Murine zymosan-induced peritonitis; format: in vivo, mouse; conditions: peritoneal lavage, n = 5 mice
Experimental: Male C57BL/6J mice of 9 weeks of age were purchased from Charles River (Kent, U.K.) and were housed in a specific pathogen-free facility in individually ventilated and filtered cages under positive pressure. Peritonitis was induced in mice by ip injection of zymosan (purchased from Sigma-Aldrich; 1 mg per mouse in 0.5 mL of phosphate-buffered saline (PBS)).[73] Mice were treated with dexamethasone (1 μg/g) purchased from Sigma-Aldrich 1 h prior to zymosan injection or (R)-6 (2 and 6 ng/g) (200 μL IP) 30 min prior to zymosan injection. Peritoneal cells were collected by lavage 4 h after injection of zymosan. The local Animal Use and Care Committee and The UK Home Office approved the animal experiments in accordance with the derivatives of both The Home Office Guidance on the Operation of Animals (Scientific Procedures) Act 1986 and The Guide for the Care and Use of Laboratory Animals of the National Research Council.
Surface marker expression on peritoneal cells was assessed by flow cytometry with data collection on a FACSCalibur (Becton Dickinson). Data were analyzed with FlowJo analysis software (Treestar Inc.). Cells were stained with AlexaFluor488 conjugated anti-F4/80 (clone BM8; eBioscience); APC conjugated anti-CD11b (clone M1/70; eBioscience) and Pacific blue conjugated anti-Ly6G (clone 1A8; BioLegend) antibodies. Prior to surface staining, peritoneal cells were counted manually (Neubauer chamber) with Turks solution. Using appropriate fluorescence minus one (FMO) controls, quadrants were drawn, and data were plotted on logarithmic-scale density- or dot-plots.

wild-type HEK-293 cells = assay: Intracellular calcium flux in wild-type HEK-293 (specificity control); format: cell-based, human
Experimental: To explore the mechanism of action through which the sLXm lead compound exerts the effects seen here, its interaction with the ALX/FPR2 receptor was investigated and agonist-induced intracellular calcium transients were measured using an engineered cell line stably overexpressing the ALX/FPR2 receptor and the Gαq subunit coupled to it (Figure S6). Wild-type HEK cells were used as controls, to verify the specificity of the agonism toward ALX/FPR2, as previously reported.[36] Briefly, prior to cell plating, sterile 96-well plates (black-sided with optically clear glass flat bottoms) were PDL-coated overnight. Subsequently, 2 × 10^5 wild-type cells and overexpressed cells/well were cultured for 18 h in DMEM complete media (containing Ca^2+ and Mg^2+) to facilitate adherence prior to labeling with Fluo-4 dye. After 1 h of incubation at 37 °C with Fluo-4, cells were gently washed twice and placed in 100% Hanks’ balanced salt solution (HBSS; 37 °C) before reading the fluorescence (485/535 nm), using a spectrophotometer conjugated with an injection system (Clariostar BMG LABTECH plate reader), allowing addition to the cells of controls (1 mM ATP, a GPCR purinergic agonist, 2 nM Wp, a synthetic ALX/FPR2 agonist) or experimental treatments [10 pM, 1 nM, and 100 nM LXA41 or (R)-6].

pIC50 (IL-6)	pIC50 (IL-1β; LPS 50 ng/mL, 24 h)	Structure (SMILES)	% relative to carageenan-induced level (C57bl/6 mice; 4h)	% relative to carageenan-induced level (C57bl/6 mice; 8h)	% relative to carageenan-induced level (C57bl/6 mice; 24h)	% relative to carageenan-induced level (C57bl/6 mice; 48h)	% reduction relative to carageenan-induced level (C57bl/6 mice; 72h)	% relative to carageenan-induced level (C57bl/6 mice; 72h)	effect on inflammatory response (paw swelling), in words (C57bl/6 mice)	Paw swelling Index: Mean (C57bl/6 mice; Time 4h, 1% carrageenan)	Paw swelling Index: Mean (C57bl/6 mice; Time 8h)	Paw swelling Index: Mean (C57bl/6 mice; Time 24h)	Paw swelling Index: Mean (C57bl/6 mice; Time 48h)	Paw swelling Index: Mean (C57bl/6 mice; Time 72h)	Imax, IL-6 release (IL-6)	enhancement of LPS-induced secretion of IL-8 (IL-8)	Ca^2+ mobilization in wild-type HEK-293 cells (wild-type HEK-293 cells)	further results
12.00	12.00	CCCCC[C@@H](O)c1nc2ccccc2nc1/C=C/[C@@H](O)[C@@H](O)CCCC(=O)OC [(R)-6, Methyl (5S,6R,E)-5,6-Dihydroxy-8-(3-((R)-1-hydroxyhexyl)quinoxalin-2-yl)oct-7-enoate]	116%	63%	72%	53%	10%	110%	significantly reduced	0.08	0.25	0.63	0.21	0.11	84 ± 2%	2.5 fold	no calcium release was induced	ΔΤR50: reduction of time taken to reduce the inflammatory response to 50% max (C57bl/6 mice; (R)-6 2 μg/kg ip, relative to vehicle-treated animals): 6 h; PD score, IL-6 release (IL-6; relative to LXA4 (1)): −2; rel. slope, IL-6 release (IL-6; relative to LXA4 (1)): 0.7; Imax, IL-1β release (IL-1β; concentration–response, LPS 50 ng/mL, 24 h): 73 ± 2%; PD score, IL-1β release (IL-1β; relative to LXA4 (1)): −2; rel. slope, IL-1β release (IL-1β; relative to LXA4 (1)): −0.03; Total no of PMNs (C57BL/6J mice; (R)-6 2 μg/kg ip (low dose) + zymosan 40 mg/kg): 4.4 ± 1.1 × 10^6/mL; Total no of PMNs (C57BL/6J mice; (R)-6 6 μg/kg ip (high dose) + zymosan 40 mg/kg): 3.2 ± 0.7 × 10^6/mL
		CCCCC[C@@H](O)c1nc2ccccc2nc1/C=C/[C@H]1OC(C)(C)O[C@H]1CCCC(=O)OC [(R)-17, Methyl 4-((4S,5R)-5-((E)-2-(3-((R)-1-Hydroxyhexyl)quinoxalin-2-yl)vinyl)-2,2-dimethyl-1,3-dioxolan-4-yl)butanoate]	103%	84%	92%	149%	120%	220%	no effect	0.07	0.33	0.80	0.60	0.22				% reduction relative to carageenan-induced level (C57bl/6 mice; 4h): 3%; % reduction relative to carageenan-induced level (C57bl/6 mice; 24h): -8%; % reduction relative to carageenan-induced level (C57bl/6 mice; 48h): 49%
12.00	12.00	CCCCC[C@H](O)/C=C/C=C\C=C\C=C\[C@@H](O)[C@@H](O)CCCC(=O)O [Compound 1, LXA4]													99 ± 1%	2.5 fold	without effect	
